Values joined by “and” are separate entries in the source; they are usually repeats but may differ in a detail not shown here. Equal values may be shown once.
How the values were obtained:
[1] = Absorption spectra and extinction coefficients of dyes; format: physicochemical; settings: for Extinction coefficient ε at λmax (abs): synthesis example, no unit
Description: Absorption spectra were measured at RT on a Perking Elmer Lambda 35 UV/Vis spectrophotometer. […] The stock solution was diluted (1:2000) and the absorbance was measured in a 5-cm standard quartz cell. All dye concentrations were in the range of 1.1 to 2.0×10^−7 M. The extinction coefficients were calculated according to Lambert-Beer's law.

[2] = Fluorescence emission spectra and quantum yield relative to HITC; format: physicochemical; settings: for QY (fluor): given as fraction in synthesis example
Description: Fluorescence spectra for the dyes were determined at RT on a Varian Cary Eclipse spectrofluorometer in a standard 1-cm quartz cell. The spectra were corrected. All concentrations of the fluorophores were chosen to be between 0.2 and 1.0 μM.
For the determination of the quantum yields (QY), the integrated relative intensities of the dyes or dye-protein conjugates, were measured against HITC as the reference. All absorbances at excitation wavelength (λexc) were in the range of 0.04-0.08 (when measured in a 1-cm cell).
The QY of each sample was independently measured 3-4 times and the average value was calculated.

[3] = Singlet oxygen quantum yield, DPBF scavenger method in ethanol; format: physicochemical; settings: measured in ethanol, 650 nm laser, ICG reference
Description: The modified relative photochemical method of Spiller W. et al. (J. Porphyrins Phthalocyanines, 1998, V. 2, 145-158) utilizing 1,3-diphenylisobenzofuran (DPBF) as a chemical scavenger was used to determine the photosensitiser's singlet oxygen quantum yields (ΦΔ) in ethanol solutions.
Ethanolic solutions containing DPBF (10 μM) and sensitizers with absorbance (optical density) in a range between 0.09 and 0.10 at 650 nm (measured in a standard 1-cm quartz cell) were prepared. Samples were saturated with oxygen by bubbling. Next, 3 mL of the solution were placed in a 1-cm cell equipped with a stirring bar and a 10 mW, 650 nm diode laser was hermetically attached to the top of cuvette so as to avoid solvent evaporation and to provide a light beam direction from top to bottom of the cuvette. The solution in the cuvette was irradiated with the diode laser under continuous stirring for a certain time. DPBF consumption was determined by monitoring DPBF bleaching over irradiation time using absorption spectroscopy at 411 nm (extinction coefficient 22,000 M^−1 cm^−1). At least six absorption spectra were obtained for each solution at different irradiation times until the DPBF absorbance reduced at least to the 10% of the initial absorbance.
The decrease of DPBF absorbance at 411 nm versus irradiation time was plotted for each photosensitizer and the DPBF degradation rate constant (K) characterizing the reaction rate of singlet oxygen with DPBF in presence of a sensitizer was calculated.

bovine erythrocytes = assay: Phototoxicity (glow lamp) and dark toxicity by hemolysis of bovine erythrocytes; format: cell-based; settings: Dark, 50 μM
Description: (§1) Bovine erythrocytes were isolated from blood plasma stored with sodium citrate. 1 mL of bovine blood was treated at centrifuge (3,000 rpm) for 10 min to precipitate erythrocytes. The supernatant was decanted, 2 mL of physiological solution were added, treated and erythrocytes were precipitated with centrifuge. The washing procedure was repeated for 3 times and the precipitated erythrocytes were collected. […] Cells were dye-incubated for 45 minutes at 37° C. in the dark. Then the examined suspensions of cells (erythrocytes) were placed at a distance of 30-cm from a 250 W glow red-lamp equipped with a water-based heat filter and irradiated with occasional stirring. After irradiation, cells were stored at 4° C. for 15 hours. […] The hemolysis level (percentage of hemolyzed cells) was determined as the ratio of absorbances of the supernatant and a solution of 100% hemolysed cells. The 100% hemolysis was taken as the value obtained when the given number of erythrocytes were suspended in distilled water.

[4] = as above; format: cell-based; settings: bovine, bovine erythrocytes, Glow Lamp
Description: as §1

Molecule: 1-(5-carboxypentyl)-2-[7-(4,6-diiodo-1,3,3-trimethyl-3H-2-indoliumyl)-2,4,6-heptatrienylidene]-3,3-dimethyl-5-indolinesulfonate [I-73]
- Absorption max. ([1]; Methanol): 748 nm
- Emission max. ([2]; Methanol): 779 nm
- Fluorescence quantum yield ([2]; Methanol): 41%
- QY (fluor) ([2]; methanol): 0.41

Molecule: 1-(5-carboxypentyl)-2-[7-(4,6-diiodo-1,3,3-trimethyl-3H-2-indoliumyl)-2,4,6-heptatrienylidene]-3-methyl-3-(4-sulfobutyl)-5-indolinesulfonate [I-72]
- Singlet oxygen generation quantum yield ΦΔ [3]: 12%
- Absorption max. ([1]; Methanol): 750 nm
- Absorption max. ([1]; Water): 750 nm
- Extinction Coefficient ([1]; Water): 270,000 M^−1cm^−1
- Extinction coefficient ε at λmax (abs) ([1]; water): 270,000
- Emission max. ([2]; Methanol): 780 nm
- Fluorescence quantum yield ([2]; Methanol): 41%
- Emission max. ([2]; Water): 777 nm
- Fluorescence quantum yield ([2]; Water): 21%
- QY (fluor) ([2]; methanol): 0.41
- QY (fluor) ([2]; water): 0.21

Molecule: 3-(5-carboxypentyl)-2-[7-(4,6-diiodo-1,3,3-trimethyl-2,3-dihydro-1H-2-indolyliden)-1,3,5-heptatrienyl]-1,1-dimethyl-6-sulfo-8-(1H-benzo[e]indolium)sulfo-nate [I-74]
- Absorption max. ([1]; Methanol): 760 nm
- Emission max. ([2]; Methanol): 793 nm
- Fluorescence quantum yield ([2]; Methanol): 22%
- QY (fluor) ([2]; methanol): 0.22

Molecule: CN1/C(=C\C=C2/CCCC(/C=C/C3=[N+](C)c4ccc(I)cc4C3(C)C)=C2Cl)C(C)(C)c2cc(I)ccc21.[I-] [I-56]
- Absorption max. ([1]; Methanol): 784 nm
- Emission max. ([2]; Methanol): 806 nm
- Fluorescence quantum yield ([2]; Methanol): 16%

Molecule: CN(C)c1ccc(SC2=C(/C=C/C3=[N+](C)c4ccc(I)cc4C3(C)C)CCC/C2=C\C=C2/N(C)c3ccc(I)cc3C2(C)C)cc1.[I-] [I-61]
- Absorption max. ([1]; Methanol): 792 nm
- Emission max. ([2]; Methanol): 812 nm
- Fluorescence quantum yield ([2]; Methanol): 14%

Molecule: CC(C)(C)C1=CC(=C/C=C/C=C/C=C/C2=[N+](CCCS(=O)(=O)[O-])c3ccc(I)cc3C2(C)CCCCCC(=O)O)C=C(C(C)(C)C)O1 (stereo not drawn) [I-68]
- Absorption max. ([1]; Methanol): 794 nm
- Emission max. ([2]; Methanol): 826 nm
- Fluorescence quantum yield ([2]; Methanol): 6%

Molecule: CN1\C(=C/C=C/C=C/C=C/C2=[N+](C)c3cc(I)cc(I)c3C2(C)CCCCCC(=O)O)C(C)(CCCCCC(=O)O)c2c(I)cc(I)cc21.[I-] (stereo not drawn) [I-79, 3-(5-carboxypentyl)-2-7-[3-(5-carboxypentyl)-4,6-diiodo-1,3-dimethyl-2,3-dihydro-1H-2-indolyliden]-1,3,5-heptatrienyl-4,6-diiodo-1,3-dimethyl-3H-indolium iodide]
- Hemolysis (bovine erythrocytes): 4%
- hemolysis at 60 min, 0.5 µM ([4]; 0.5 μM, exposure 60 min): 75%
- hemolysis at 30 min, 1 µM ([4]; 1 μM, exposure 30 min): 80%
- Absorption max. ([1]; Chloroform): 763 nm

Molecule: C[N+]1=C(C=CC=CC=CC=C2N(CCCCS(=O)(=O)[O-])c3ccc(S(=O)(=O)O)cc3C2(C)C)C(CCCCCC(=O)O)c2c(I)cc(I)cc21 (stereo not drawn) [I-83, 4-(2-7-[3-(5-carboxypentyl)-4,6-diiodo-1-methyl-3H-2-indoliumyl]-2,4,6-heptatrienylidene-3,3-dimethyl-5-sulfo-2,3-dihydro-1H-1-indolyl)-1-butanesulfonate]
- Absorption max. ([1]; Conjugates with IgG (antibody)): 755 nm
- Absorption max. ([1]; Methanol): 750 nm
- Absorption max. ([1]; Water): 748 nm
- Emission max. ([2]; Conjugates with IgG (antibody)): 776 nm
- Emission max. ([2]; Methanol): 779 nm
- Fluorescence quantum yield ([2]; Methanol): 43%
- Emission max. ([2]; Water): 776 nm
- Fluorescence quantum yield ([2]; Water): 22%

Molecule: CC1(CCCCCC(=O)O)C(/C=C/C=C/C=C/C=C2\N(CCCCS(=O)(=O)O)c3ccc(S(=O)(=O)[O-])cc3C2(C)CCCCS(=O)(=O)O)=[N+](CCCS(=O)(=O)O)c2cc(I)c(I)c(I)c21 (stereo not drawn) [I-84, 4-[2-7-[3-(5-carboxypentyl)-4,5,6-triiodo-3-methyl-1-(3-sulfopro-pyl)-2,3-dihydro-1H-2-indolyliden]-1,3,5-heptatrienyl-3-methyl-5-sulfo-3-(4-sulfobutyl)-3H-1-indoliumyl]-1-butanesulfonate]
- Absorption max. ([1]; Conjugates with IgG (antibody)): 762 nm
- Absorption max. ([1]; Phosphate buffer (pH 7.4)): 758 nm
- Absorption max. ([1]; Water): 758 nm
- Extinction coefficient ε at λmax (abs) ([1]; water): 270,000
- Emission max. ([2]; Conjugates with IgG (antibody)): 787 nm
- Emission max. ([2]; Phosphate buffer (pH 7.4)): 787 nm
- Emission max. ([2]; Water): 787 nm
- Fluorescence quantum yield ([2]; Water (PB, pH 7.4)): 20%
- QY (fluor) ([2]; water): 0.20

Molecule: CN1\C(=C/C=C/C=C/C=C/C2=[N+](C)c3cc(Br)c(Br)c(Br)c3C2(C)C)C(C)(C)c2c1cc(Br)c(Br)c2Br.[I-] [I-88, 4,5,6-tribromo-1,3,3-trimethyl-2-[7-(4,5,6-tribromo-1,3,3-trimethyl-2,3-dihydro-1H-2-indolyliden)-1,3,5-heptatrienyl]-3H-indolium iodide]
- Singlet oxygen generation quantum yield ΦΔ [3]: 11%
- Absorption max. ([1]; Methanol): 748 nm
- Extinction Coefficient ([1]; Methanol): 240,000 M^−1cm^−1
- Extinction coefficient ε at λmax (abs) ([1]; methanol): 240,000
- Emission max. ([2]; Methanol): 778 nm
- Fluorescence quantum yield ([2]; Methanol): 50%
- QY (fluor) ([2]; methanol): 0.50

Molecule: C[N+]1=C(C=CC=CC=CC=C2N(CCCCCC(=O)NCCOCCOCCOCCC(=O)O)c3ccc(S(=O)(=O)[O-])cc3C2(C)CCCCS(=O)(=O)O)C(C)(C)c2c(I)cc(I)cc21 (stereo not drawn) [I-89, 1-[5-(2-2-[2-(2-carboxyethoxy)ethoxy]ethoxyethylcarbamoyl)-pentyl]-2-[7-(4,6-diiodo-1,3,3-trimethyl-3H-2-indoliumyl)-2,4,6-heptatrienylidene]-3-methyl-3-(4-sulfobutyl)-5-indolinesulfonate]
- Singlet oxygen generation quantum yield ΦΔ [3]: 13%
- Absorption max. ([1]; Water): 750 nm
- Extinction Coefficient ([1]; Water): 270,000 M^−1cm^−1
- Emission max. ([2]; Water): 777 nm
- Fluorescence quantum yield ([2]; Water): 21.5%

Molecule: CC1(CCCCCC(=O)N2CC[N+]3(CC2)CC[N+]2(CCNCC2)CC3)C(/C=C/C=C/C=C/C=C2\N(CCCS(=O)(=O)[O-])c3cc(I)c(I)c(I)c3C2(C)CCCCCC(=O)N2CC[N+]3(CC2)CC[N+]2(CCNCC2)CC3)=[N+](CCCS(=O)(=O)[O-])c2cc(I)c(I)c(I)c21.[Cl-].[Cl-].[Cl-] (stereo not drawn) [I-91]
- Absorption max. ([1]; Methanol): 766 nm
- Emission max. ([2]; Methanol): 795 nm
- Fluorescence quantum yield ([2]; Methanol): 26%

Molecule: CC1(CCCCCC(=O)NCCS(=O)(=O)O)C(/C=C/C=C/C=C/C=C2\N(CCCS(=O)(=O)O)c3cc(I)c(I)c(I)c3C2(C)CCCCCC(=O)NCCS(=O)(=O)O)=[N+](CCCS(=O)(=O)[O-])c2cc(I)c(I)c(I)c21 (stereo not drawn) [I-92]
- Absorption max. ([1]; Methanol): 764 nm
- Emission max. ([2]; Methanol): 794 nm
- Fluorescence quantum yield ([2]; Methanol): 39%

Molecule: CN1\C(=C/C=C/C=C/C=C/C2=[N+](C)c3cc(I)c(I)c(I)c3C2(C)CCCCCC(=O)O)C(C)(CCCCCC(=O)O)c2c1cc(I)c(I)c2I.[I-] (stereo not drawn) [I-93]
- Absorption max. ([1]; Methanol): 755 nm
- Absorption max. ([1]; Water): 783 nm
- Emission max. ([2]; Methanol): 783 nm
- Fluorescence quantum yield ([2]; Methanol): 47%
- Emission max. ([2]; Water): n.f.

Molecule: CN1\C(=C/C=C/C=C/C=C/C2=[N+](C)c3cc(I)c(I)c(I)c3C2(C)CCCCCC(=O)N2CC[N+]3(CC2)CC[N+]2(CCNCC2)CC3)C(C)(CCCCCC(=O)N2CC[N+]3(CC2)CC[N+]2(CCNCC2)CC3)c2c1cc(I)c(I)c2I.[Cl-].[Cl-].[Cl-].[Cl-].[Cl-] (stereo not drawn) [I-94]
- Absorption max. ([1]; Methanol): 759 nm
- Absorption max. ([1]; Water): 695 nm and 756 nm
- Emission max. ([2]; Methanol): 788 nm
- Fluorescence quantum yield ([2]; Methanol): 38%
- Emission max. ([2]; Water): 782 nm
- Fluorescence quantum yield ([2]; Water): 1.8%

Molecule: CN1/C(=C\C=C2/CCCC(/C=C/C3=[N+](C)c4cc(I)c(I)c(I)c4C3(C)C)=C2Cl)C(C)(C)c2c1cc(I)c(I)c2I.[I-] [I-96]
- Absorption max. ([1]; Methanol): 787 nm
- Emission max. ([2]; Methanol): 808 nm
- Fluorescence quantum yield ([2]; Methanol): 21%

Source: patent US9572881B2, “Halogenated compounds for photodynamic therapy” (Nanoquantum Sciences, Inc., priority 2012, dated 2017)
